We go through 10 compounds from patent US11053250B2, “Pyrrolo[1,2-b]pyridazine derivatives” (Gilead Sciences, Inc., priority 2018, dated 2021).

The subject of one test is TNFα. Put plainly: IRAK4 Monocyte TNFα Cell Based Assay. The following applies: cryopreserved human monocytes, LPS 50 pg/ml stimulation, TNFα by TR-FRET. In a few lines:
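Cells (5,000/well) preincubated with compound 1 h at 37° C (0.1% DMSO), then stimulated 4 h with 50 pg/ml LPS. Supernatant TNFα quantified by TR-FRET (665/615 nm ratio). Percent of control scaled between unstimulated (0%) and LPS-stimulated (100%) wells.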
(In TR-FRET formats the signal depends on donor and acceptor labels being close together.)

Another test deals with IRAK4 enzyme (Homo sapiens (Human), UniProt Q9NWZ3). Put plainly: IRAK4 Biochemical Assay (TR-FRET/HTRF). As to conditions: 0.75 nM IRAK4, 500 μM ATP, STK1 peptide. In a few lines: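 Compound was preincubated 15 min with 0.75 nM IRAK4 and 2 µM STK1 peptide. Reaction ran 120 min at room temperature with 500 µM ATP in HEPES pH 7.0 buffer (5 mM MgCl2, 1 mM DTT), then HTRF detection of phosphopeptide as the 665/615 nm ratio. % inhibition is relative to no-inhibitor and saturating-staurosporine controls.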
Sequence of IRAK4 enzyme (Q9NWZ3 whole entry): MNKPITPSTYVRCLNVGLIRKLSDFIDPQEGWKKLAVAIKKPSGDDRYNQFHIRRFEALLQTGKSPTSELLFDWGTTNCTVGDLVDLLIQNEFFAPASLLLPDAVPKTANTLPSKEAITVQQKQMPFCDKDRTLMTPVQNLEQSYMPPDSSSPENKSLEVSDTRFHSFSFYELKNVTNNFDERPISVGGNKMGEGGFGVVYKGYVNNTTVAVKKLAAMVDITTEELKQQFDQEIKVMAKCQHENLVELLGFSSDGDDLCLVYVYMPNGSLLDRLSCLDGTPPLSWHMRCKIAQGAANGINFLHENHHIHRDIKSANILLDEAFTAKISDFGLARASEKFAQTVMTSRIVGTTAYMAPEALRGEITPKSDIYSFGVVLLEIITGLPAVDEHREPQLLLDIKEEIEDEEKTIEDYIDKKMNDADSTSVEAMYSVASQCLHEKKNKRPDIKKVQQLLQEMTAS

Some results are limits rather than exact numbers.

What is called EC50 is the midpoint of the concentration-response curve. As usually defined, the IC50 is the concentration that gives 50% inhibition. Lower therefore signals inhibition by little substance. In turn, `CC(C)Nc1cc(-c2ccc3cc(C#N)cnn23)ncc1-c1cn(-c2cccnc2)nn1` [Compound 52, 7-(4-(isopropylamino)-5-(1-(pyridin-3-yl)-1H-1,2,3-triazol-4-yl)pyridin-2-yl)pyrrolo[1,2-b]pyridazine-3-carbonitrile] had a concentration giving a half-maximal response (EC50) with TNFα (Monocyte) of 95 nM. Further, on IRAK4 enzyme, the midpoint of inhibition, the IC50, lay at 3 nM.

Consider `CC(C)Nc1cc(-c2ccc3cc(C#N)cnn23)ncc1-c1cn(C2COC2)nn1` [Compound 53, 7-(4-(isopropylamino)-5-(1-(oxetan-3-yl)-1H-1,2,3-triazol-4-yl)pyridin-2-yl)pyrrolo[1,2-b]pyridazine-3-carbonitrile], for which the half-maximal effective concentration (EC50) with TNFα (Monocyte) turned out to be 171 nM. This compound also returned a half-inhibitory concentration (IC50) at IRAK4 enzyme of 2 nM.

In the test on TNFα (Monocyte), `CC(C)Nc1cc(-c2ccc3cc(C#N)cnn23)ncc1-c1cn(C)nn1` [Compound 55, 7-(4-(isopropylamino)-5-(1-methyl-1H-1,2,3-triazol-4-yl)pyridin-2-yl)pyrrolo[1,2-b]pyridazine-3-carbonitrile] returned an EC50 of 162 nM. Further, 2 nM corresponded to half-maximal inhibition against IRAK4 enzyme (IC50).

Compound `COC(=O)Cn1cc(-c2cnc(-c3ccc4cc(C#N)cnn34)cc2NC(C)C)nn1` [Compound 56, methyl 2-(4-(6-(3-cyanopyrrolo[1,2-b]pyridazin-7-yl)-4-(isopropylamino)pyridin-3-yl)-1H-1,2,3-triazol-1-yl)acetate] displayed an EC50 in the test on TNFα (Monocyte) of 42 nM. On IRAK4 enzyme, this compound returned an IC50 of less than 1 nM.

In the test on TNFα (Monocyte), `CC(C)Nc1cc(-c2ccc3cc(C#N)cnn23)ncc1-c1cn(C23CC(C2)C3)nn1` [Compound 57, 7-(5-(1-(bicyclo[1.1.1]pentan-1-yl)-1H-1,2,3-triazol-4-yl)-4-(isopropylamino)pyridin-2-yl)pyrrolo[1,2-b]pyridazine-3-carbonitrile] registered a half-maximal effective concentration (EC50) of 1120 nM. This compound showed an IC50 against IRAK4 enzyme of 14 nM.

In the case of `CC(C)Nc1cc(-c2ccc3cc(C#N)cnn23)ncc1-c1cn(C2(C(F)(F)F)CC2)nn1` [Compound 58, 7-(4-(isopropylamino)-5-(1-(1-(trifluoromethyl)cyclopropyl)-1H-1,2,3-triazol-4-yl)pyridin-2-yl)pyrrolo[1,2-b]pyridazine-3-carbonitrile], the EC50 in the test on TNFα (Monocyte) turned out to be 1240 nM. At IRAK4 enzyme, this compound returned an IC50 of 12 nM.

The compound `CC(C)Nc1cc(-c2ccc3cc(C#N)cnn23)ncc1-c1cn(C2CCOCC2)nn1` [Compound 59, 7-(4-(isopropylamino)-5-(1-(tetrahydro-2H-pyran-4-yl)-1H-1,2,3-triazol-4-yl)pyridin-2-yl)pyrrolo[1,2-b]pyridazine-3-carbonitrile] showed an EC50 in the test on TNFα (Monocyte) of 58 nM. The compound further showed an IC50 against IRAK4 enzyme of less than 1 nM.

`CC(C)Nc1cc(-c2ccc3cc(C#N)cnn23)ncc1-n1cc(C2CCOCC2)nn1` [Compound 60, 7-(4-(isopropylamino)-5-(4-(tetrahydro-2H-pyran-4-yl)-1H-1,2,3-triazol-1-yl)pyridin-2-yl)pyrrolo[1,2-b]pyridazine-3-carbonitrile]: the EC50 in the test on TNFα (Monocyte) was 184 nM. The compound also had a half-maximal inhibitory concentration (IC50) against IRAK4 enzyme of 2 nM.

As to `CC(=O)N[C@H]1CC[C@H](c2cn(-c3cnc(-c4ccc5cc(C#N)cnn45)cc3NC(C)C)nn2)CC1` [Compound 61, N-((1r,4r)-4-(1-(6-(3-cyanopyrrolo[1,2-b]pyridazin-7-yl)-4-(isopropylamino)pyridin-3-yl)-1H-1,2,3-triazol-4-yl)cyclohexyl)acetamide], the EC50 with TNFα is 75 nM. In addition, on IRAK4 enzyme, it took 2 nM to reach half-maximal inhibition (IC50).

The compound `CC(C)Nc1cc(-c2ccc3cc(C#N)cnn23)ncc1-n1cc([C@H]2CC[C@H](NC(=O)OC(C)(C)C)CC2)nn1` [Compound 64, tert-butyl ((1r,4r)-4-(1-(6-(3-cyanopyrrolo[1,2-b]pyridazin-7-yl)-4-(isopropylamino)pyridin-3-yl)-1H-1,2,3-triazol-4-yl)cyclohexyl)carbamate] displayed an EC50 in the test on TNFα of 121 nM. Moreover, half-maximal inhibition on IRAK4 enzyme (IC50) was put at 2 nM.
